Results as given in patent publication US11203601B2, “Tricyclic compounds as glycogen synthase kinase 3 (GSK3) inhibitors and uses thereof” (The Broad Institute, Inc., priority 2017, dated 2021).

Assays:
Assay in all cases: Carna kinome panel
Format in all cases: biochemical
CDK2/CycA2 = CDK2/CycA2 (Homo sapiens (Human), UniProt P24941)
Description: (§1) 2) Off-Chip Mobility Shift Assay (MSA).

CDK2/CycE1 = CDK2/CycE1 (Homo sapiens (Human), UniProt P24941)
Description: as §1

CDK3/CycE1 = CDK3/CycE1 (Homo sapiens (Human), UniProt Q00526)
Description: as §1

CDK9/CycT1 = CDK9/CycT1 (Homo sapiens (Human), UniProt P50750)
Chain of CDK9/CycT1 (P50750 whole entry, looked up): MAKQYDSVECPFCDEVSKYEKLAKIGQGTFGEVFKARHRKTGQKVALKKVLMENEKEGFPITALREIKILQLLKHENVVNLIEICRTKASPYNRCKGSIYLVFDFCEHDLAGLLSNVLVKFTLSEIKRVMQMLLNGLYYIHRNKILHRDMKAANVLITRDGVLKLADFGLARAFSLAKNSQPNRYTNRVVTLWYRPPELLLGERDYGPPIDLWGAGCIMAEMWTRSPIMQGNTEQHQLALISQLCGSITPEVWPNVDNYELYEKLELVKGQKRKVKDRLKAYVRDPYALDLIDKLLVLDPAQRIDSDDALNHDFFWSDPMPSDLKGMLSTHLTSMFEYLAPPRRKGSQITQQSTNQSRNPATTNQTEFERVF
Chain of CDK9/CycT1 (O60563 whole entry partner, looked up): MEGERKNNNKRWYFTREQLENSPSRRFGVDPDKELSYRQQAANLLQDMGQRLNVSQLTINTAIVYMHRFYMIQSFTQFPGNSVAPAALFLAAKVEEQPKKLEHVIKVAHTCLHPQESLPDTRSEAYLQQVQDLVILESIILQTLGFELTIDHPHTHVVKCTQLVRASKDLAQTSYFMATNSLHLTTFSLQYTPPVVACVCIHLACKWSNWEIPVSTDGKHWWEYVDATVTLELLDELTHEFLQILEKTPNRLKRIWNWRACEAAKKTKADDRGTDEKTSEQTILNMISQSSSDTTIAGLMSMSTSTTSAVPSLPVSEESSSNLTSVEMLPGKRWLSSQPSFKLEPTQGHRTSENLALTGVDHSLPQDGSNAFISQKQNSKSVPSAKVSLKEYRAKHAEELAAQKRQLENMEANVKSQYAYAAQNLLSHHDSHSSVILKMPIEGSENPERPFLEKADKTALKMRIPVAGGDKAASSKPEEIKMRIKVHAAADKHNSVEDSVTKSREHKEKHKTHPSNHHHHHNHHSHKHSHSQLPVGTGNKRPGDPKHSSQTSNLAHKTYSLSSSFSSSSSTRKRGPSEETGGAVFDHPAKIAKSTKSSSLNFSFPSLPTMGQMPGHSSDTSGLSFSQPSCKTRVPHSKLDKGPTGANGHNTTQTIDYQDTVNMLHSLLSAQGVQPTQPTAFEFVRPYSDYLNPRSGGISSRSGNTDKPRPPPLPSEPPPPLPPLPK
Description: as §1

PIK3CA/PIK3R1 = PIK3CA/PIK3R1 (Homo sapiens (Human), UniProt P42336)
Chain of PIK3CA/PIK3R1 (P42336 whole entry, looked up): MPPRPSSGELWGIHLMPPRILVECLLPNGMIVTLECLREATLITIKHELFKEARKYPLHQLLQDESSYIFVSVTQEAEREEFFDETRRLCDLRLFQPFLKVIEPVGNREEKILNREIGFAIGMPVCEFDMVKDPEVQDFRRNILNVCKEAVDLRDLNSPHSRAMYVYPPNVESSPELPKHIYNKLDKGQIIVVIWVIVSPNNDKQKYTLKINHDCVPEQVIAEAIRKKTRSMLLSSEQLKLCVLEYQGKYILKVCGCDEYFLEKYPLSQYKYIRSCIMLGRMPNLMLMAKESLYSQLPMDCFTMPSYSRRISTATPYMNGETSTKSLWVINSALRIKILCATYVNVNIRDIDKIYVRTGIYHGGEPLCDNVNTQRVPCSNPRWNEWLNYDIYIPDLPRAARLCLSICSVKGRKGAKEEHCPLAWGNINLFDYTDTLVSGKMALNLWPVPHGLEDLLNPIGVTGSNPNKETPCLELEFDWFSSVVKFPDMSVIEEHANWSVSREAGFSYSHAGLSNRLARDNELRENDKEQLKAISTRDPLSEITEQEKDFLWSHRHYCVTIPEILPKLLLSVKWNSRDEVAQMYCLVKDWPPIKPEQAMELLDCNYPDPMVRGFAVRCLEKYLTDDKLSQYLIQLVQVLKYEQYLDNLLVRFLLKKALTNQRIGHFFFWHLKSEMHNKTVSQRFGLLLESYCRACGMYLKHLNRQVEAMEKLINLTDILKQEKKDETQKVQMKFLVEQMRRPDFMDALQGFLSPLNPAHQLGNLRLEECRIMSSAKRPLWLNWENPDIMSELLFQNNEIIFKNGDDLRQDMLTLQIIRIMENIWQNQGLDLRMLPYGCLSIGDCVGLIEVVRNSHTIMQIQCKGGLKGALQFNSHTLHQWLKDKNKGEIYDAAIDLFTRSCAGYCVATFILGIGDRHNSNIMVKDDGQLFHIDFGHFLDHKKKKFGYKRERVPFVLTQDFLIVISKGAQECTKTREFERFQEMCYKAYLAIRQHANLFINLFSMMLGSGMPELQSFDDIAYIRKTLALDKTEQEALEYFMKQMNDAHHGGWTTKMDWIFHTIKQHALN
Chain of PIK3CA/PIK3R1 (P27986 whole entry partner, looked up): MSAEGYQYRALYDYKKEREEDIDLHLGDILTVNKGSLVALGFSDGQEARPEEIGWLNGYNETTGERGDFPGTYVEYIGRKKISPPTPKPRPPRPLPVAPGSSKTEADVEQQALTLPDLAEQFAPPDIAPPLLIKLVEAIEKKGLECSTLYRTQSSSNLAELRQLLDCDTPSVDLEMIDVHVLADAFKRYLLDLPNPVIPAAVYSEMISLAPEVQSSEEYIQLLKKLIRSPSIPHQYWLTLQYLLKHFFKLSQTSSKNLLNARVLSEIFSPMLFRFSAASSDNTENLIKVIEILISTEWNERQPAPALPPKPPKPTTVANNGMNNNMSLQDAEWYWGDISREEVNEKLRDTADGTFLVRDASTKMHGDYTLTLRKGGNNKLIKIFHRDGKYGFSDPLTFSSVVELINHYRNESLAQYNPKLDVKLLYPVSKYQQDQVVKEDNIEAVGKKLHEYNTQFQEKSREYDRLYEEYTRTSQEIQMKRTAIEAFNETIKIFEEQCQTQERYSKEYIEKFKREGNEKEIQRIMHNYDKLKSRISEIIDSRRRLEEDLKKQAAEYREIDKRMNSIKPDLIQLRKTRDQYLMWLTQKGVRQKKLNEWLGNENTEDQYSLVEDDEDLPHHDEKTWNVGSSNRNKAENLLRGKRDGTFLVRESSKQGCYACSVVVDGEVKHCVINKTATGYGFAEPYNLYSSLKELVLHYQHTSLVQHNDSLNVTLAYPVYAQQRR
Description: as §1

NEK6 = NEK6 (Homo sapiens (Human), UniProt Q9HC98); conditions: read-out: % Inhibition at 10 μM of the test compound
EPHB2 = EPHB2 (Homo sapiens (Human), UniProt P29323); conditions: read-out: % Inhibition at 10 μM of the test compound
MAP3K3_Cascade = MAP3K3_Cascade (Homo sapiens (Human), UniProt Q99759); conditions: read-out: % Inhibition at 10 μM of the test compound
LATS2 = LATS2 (Homo sapiens (Human), UniProt Q9NRM7); conditions: read-out: % Inhibition at 10 μM of the test compound
Chain of LATS2 (Q9NRM7 whole entry): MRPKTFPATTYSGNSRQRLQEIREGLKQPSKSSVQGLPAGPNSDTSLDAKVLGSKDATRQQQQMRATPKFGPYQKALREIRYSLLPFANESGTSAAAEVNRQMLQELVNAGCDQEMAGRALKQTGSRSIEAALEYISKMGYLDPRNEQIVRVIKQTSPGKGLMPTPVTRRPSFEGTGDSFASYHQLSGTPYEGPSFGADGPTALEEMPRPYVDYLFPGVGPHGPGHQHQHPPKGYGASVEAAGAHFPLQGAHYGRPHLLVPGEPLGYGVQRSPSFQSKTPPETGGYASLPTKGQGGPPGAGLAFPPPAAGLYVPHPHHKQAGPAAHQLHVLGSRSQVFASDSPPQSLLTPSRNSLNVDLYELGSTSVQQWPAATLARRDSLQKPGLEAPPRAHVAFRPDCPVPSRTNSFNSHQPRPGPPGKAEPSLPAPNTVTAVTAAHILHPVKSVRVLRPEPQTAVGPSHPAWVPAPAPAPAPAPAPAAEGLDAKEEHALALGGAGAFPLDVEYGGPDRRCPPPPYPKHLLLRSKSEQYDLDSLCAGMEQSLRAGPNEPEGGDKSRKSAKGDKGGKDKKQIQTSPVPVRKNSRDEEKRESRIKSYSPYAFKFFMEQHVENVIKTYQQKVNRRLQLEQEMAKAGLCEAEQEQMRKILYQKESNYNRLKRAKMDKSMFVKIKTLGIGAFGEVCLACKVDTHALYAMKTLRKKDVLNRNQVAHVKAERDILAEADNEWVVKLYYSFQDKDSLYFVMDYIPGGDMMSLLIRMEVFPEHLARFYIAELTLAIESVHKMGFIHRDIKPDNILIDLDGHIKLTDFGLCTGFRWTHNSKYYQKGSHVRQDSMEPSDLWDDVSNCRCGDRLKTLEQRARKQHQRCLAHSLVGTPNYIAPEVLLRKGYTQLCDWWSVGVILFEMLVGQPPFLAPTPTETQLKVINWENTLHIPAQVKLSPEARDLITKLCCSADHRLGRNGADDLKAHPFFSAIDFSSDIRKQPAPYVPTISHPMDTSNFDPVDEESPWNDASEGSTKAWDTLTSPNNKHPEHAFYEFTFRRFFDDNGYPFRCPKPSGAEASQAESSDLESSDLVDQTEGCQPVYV

TRKA = TRKA (Homo sapiens (Human), UniProt P04629); conditions: read-out: % Inhibition at 10 μM of the test compound
MAP2K3_Cascade = MAP2K3_Cascade (Homo sapiens (Human), UniProt P46734); conditions: read-out: % Inhibition at 10 μM of the test compound
Chain of MAP2K3_Cascade (P46734 whole entry): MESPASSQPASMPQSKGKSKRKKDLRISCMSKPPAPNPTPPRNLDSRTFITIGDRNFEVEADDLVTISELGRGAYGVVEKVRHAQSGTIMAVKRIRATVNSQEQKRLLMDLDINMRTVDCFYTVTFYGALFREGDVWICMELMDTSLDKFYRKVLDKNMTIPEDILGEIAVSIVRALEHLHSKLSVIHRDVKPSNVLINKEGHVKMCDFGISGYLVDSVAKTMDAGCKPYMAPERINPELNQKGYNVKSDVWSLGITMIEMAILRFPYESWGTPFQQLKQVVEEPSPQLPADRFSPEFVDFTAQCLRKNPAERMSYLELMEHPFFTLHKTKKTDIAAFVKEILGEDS

PAK5 = PAK5 (Homo sapiens (Human), UniProt Q9P286); conditions: read-out: % Inhibition at 10 μM of the test compound
DLK_Cascade = DLK_Cascade (Homo sapiens (Human), UniProt Q12852); conditions: read-out: % Inhibition at 10 μM of the test compound
PKCδ = PKCδ (Homo sapiens (Human), UniProt Q05655); conditions: read-out: % Inhibition at 10 μM of the test compound
IKKβ = IKKβ (Homo sapiens (Human), UniProt O14920); conditions: read-out: % Inhibition at 10 μM of the test compound
ALK(F1174L) = ALK(F1174L) (Homo sapiens (Human), UniProt Q9UM73, F1174L); conditions: read-out: % Inhibition at 10 μM of the test compound
PIM3 = PIM3 (Homo sapiens (Human), UniProt Q86V86); conditions: read-out: % Inhibition at 10 μM of the test compound
MARK2 = MARK2 (Homo sapiens (Human), UniProt Q7KZI7); conditions: read-out: % Inhibition at 10 μM of the test compound
ABL(T315I) = ABL(T315I) (Homo sapiens (Human), UniProt P00519, T315I); conditions: read-out: % Inhibition at 10 μM of the test compound
PKACβ = PKACβ (Homo sapiens (Human), UniProt P22694); conditions: read-out: % Inhibition at 10 μM of the test compound
HER2 = HER2 (Homo sapiens (Human), UniProt P04626); conditions: read-out: % Inhibition at 10 μM of the test compound
NDR2 = NDR2 (Homo sapiens (Human), UniProt Q9Y2H1); conditions: read-out: % Inhibition at 10 μM of the test compound
TXK = TXK (Homo sapiens (Human), UniProt P42681); conditions: read-out: % Inhibition at 10 μM of the test compound
WNK1 = WNK1 (Homo sapiens (Human), UniProt Q9H4A3); conditions: read-out: % Inhibition at 10 μM of the test compound
ALK(L1152insT) = tested on: ALK(L1152insT)
Description: Briefly, a selection of compounds was screened against a panel of kinases at a single concentration of 10 μM. […] This was completed using one of two assays, depending on the kinase being examined: 1) IMAP Assay. A solution of 4× inhibitor, 4× substrate/ATP/metal solution and 2× kinase solution was prepared with assay buffer (20 mM HEPES, 0.01% Tween-20, 2 mM DTT, pH 7.4) and mixed, then incubated in 384-well black plates for 1 hour at room temperature. The IMAP binding reagent (IMAP Screening Express kit; Molecular Devices) was added to each well and incubated for 30 minutes. […] 2) Off-Chip Mobility Shift Assay (MSA). A solution of 4× inhibitor, 4× substrate/ATP/metal solution and 2× kinase solution was prepared with assay buffer (20 mM HEPES, 0.01% Triton X-100, 2 mM DTT, pH 7.5) and mixed, then incubated in 384-well plates for 1 or 5 hours depending on the kinase, at room temperature. Termination buffer (QuickScout Screening assist MSA; Carna Biosciences) was added to each well. The entire reaction mixture was then applied to a LabChip3000 system (Caliper Life Science), and the product and substrate peptide peaks were separated and quantified. […] The entire reaction mixture was then applied to a LabChip3000 system (Caliper Life Science), and the product and substrate peptide peaks were separated and quantified.

KIT(V654A) = KIT(V654A) (Homo sapiens (Human), UniProt P10721, V654A); conditions: read-out: % Inhibition at 10 μM of the test compound
ALK(C1156Y) = ALK(C1156Y) (Homo sapiens (Human), UniProt Q9UM73, C1156Y); conditions: read-out: % Inhibition at 10 μM of the test compound
KIT(T670I) = KIT(T670I) (Homo sapiens (Human), UniProt P10721, T670I); conditions: read-out: % Inhibition at 10 μM of the test compound
AKT3 = AKT3 (Homo sapiens (Human), UniProt Q9Y243); conditions: read-out: % Inhibition at 10 μM of the test compound
KIT(D816Y) = KIT(D816Y) (Homo sapiens (Human), UniProt P10721, D816Y); conditions: read-out: % Inhibition at 10 μM of the test compound
TBK1 = TBK1 (Homo sapiens (Human), UniProt Q9UHD2); conditions: read-out: % Inhibition at 10 μM of the test compound
CaMK4 = CaMK4 (Homo sapiens (Human), UniProt Q16566); conditions: read-out: % Inhibition at 10 μM of the test compound
EGFR(d746-750) = EGFR(d746-750) (Homo sapiens (Human), UniProt P00533, DEL746-750); conditions: read-out: % Inhibition at 10 μM of the test compound
JAK1 = JAK1 (Homo sapiens (Human), UniProt P23458); conditions: read-out: % Inhibition at 10 μM of the test compound
SPHK1 = SPHK1 (Homo sapiens (Human), UniProt Q9NYA1); conditions: read-out: % Inhibition at 10 μM of the test compound
Chain of SPHK1 (Q9NYA1 whole entry): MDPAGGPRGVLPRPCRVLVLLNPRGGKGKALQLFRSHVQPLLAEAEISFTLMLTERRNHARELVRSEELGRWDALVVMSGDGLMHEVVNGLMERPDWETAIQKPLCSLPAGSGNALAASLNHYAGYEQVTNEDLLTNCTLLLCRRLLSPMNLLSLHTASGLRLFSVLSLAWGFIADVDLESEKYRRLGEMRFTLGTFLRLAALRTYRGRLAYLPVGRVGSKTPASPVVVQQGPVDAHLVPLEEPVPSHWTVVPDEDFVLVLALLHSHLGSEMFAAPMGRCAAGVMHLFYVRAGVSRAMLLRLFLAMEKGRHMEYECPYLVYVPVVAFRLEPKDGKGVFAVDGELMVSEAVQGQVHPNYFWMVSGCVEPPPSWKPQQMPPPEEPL

MST1 = MST1 (Homo sapiens (Human), UniProt Q13043); conditions: read-out: % Inhibition at 10 μM of the test compound
NuaK1 = NuaK1 (Homo sapiens (Human), UniProt O60285); conditions: read-out: % Inhibition at 10 μM of the test compound
MET(Y1235D) = MET(Y1235D) (Homo sapiens (Human), UniProt P08581, Y1235D); conditions: read-out: % Inhibition at 10 μM of the test compound
[1] = read-out: % Inhibition at 10 μM of the test compound

CCC1(c2ccccc2)C2=C(CC(C)(C)CC2=O)Nc2ncsc21 (stereo not shown) [Compound 1, 9-Ethyl-6,6-dimethyl-9-phenyl-5,6,7,9-tetrahydrothiazolo[4,5-b]quinolin-8(4H)-one]
IC50 (CDK2/CycA2): 6.91 µM | inhibition at 10 µM (CDK2/CycA2; [1]): 58.8% | IC50 (CDK2/CycE1): 8.52 µM | inhibition at 10 µM (CDK2/CycE1; [1]): 53.4% | IC50 (CDK3/CycE1): 6.22 µM | inhibition at 10 µM (CDK3/CycE1; [1]): 55.5% | IC50 (CDK9/CycT1): 6.48 µM | inhibition at 10 µM (CDK9/CycT1; [1]): 60.5% | IC50 (PIK3CA/PIK3R1): > 10 µM | inhibition at 10 µM (PIK3CA/PIK3R1; [1]): 65.1% | inhibition at 10 µM (NEK6): 20.9% | inhibition at 10 µM (EPHB2): 14.5% | inhibition at 10 µM (MAP3K3_Cascade): 11.1% | inhibition at 10 µM (LATS2): 5.4% | inhibition at 10 µM (TRKA): 5.4% | inhibition at 10 µM (MAP2K3_Cascade): 2.9% | inhibition at 10 µM (PAK5): 2.9% | inhibition at 10 µM (DLK_Cascade): 2.5% | inhibition at 10 µM (PKCδ): 2.4% | inhibition at 10 µM (IKKβ): 2.3% | inhibition at 10 µM (ALK(F1174L)): 1.8% | inhibition at 10 µM (PIM3): 1.1% | inhibition at 10 µM (MARK2): 0.4% | inhibition at 10 µM (ABL(T315I)): 0.4% | inhibition at 10 µM (PKACβ): -0.8% | inhibition at 10 µM (HER2): -1% | inhibition at 10 µM (NDR2): -1.2% | inhibition at 10 µM (TXK): -1.3% | inhibition at 10 µM (WNK1): -2.1% | % Inhibition at 10 μM of the test compound (ALK(L1152insT)): −2.3% | inhibition at 10 µM (KIT(V654A)): -3.5% | inhibition at 10 µM (ALK(C1156Y)): -3.7% | inhibition at 10 µM (KIT(T670I)): -4.2% | inhibition at 10 µM (AKT3): -4.5% | inhibition at 10 µM (KIT(D816Y)): -4.7% | inhibition at 10 µM (TBK1): -5.3% | inhibition at 10 µM (CaMK4): -5.4% | inhibition at 10 µM (EGFR(d746-750)): -6.1% | inhibition at 10 µM (JAK1): -6.4% | inhibition at 10 µM (SPHK1): -6.5% | inhibition at 10 µM (MST1): -6.6% | inhibition at 10 µM (NuaK1): -9.2% | inhibition at 10 µM (MET(Y1235D)): -12.2%
